As usually defined, the IC50 is the point on the concentration scale where inhibition reaches its midpoint.

One assay is filed under the species Mus musculus. Briefly: cells. The format is functional, organism-based, ddY.
Settings: not given; call rule not given here
Turning to `O=C(O)/C=C\c1ccc(O)c(O)c1O`, the IC50 result is given as “Not Active”.

As for `COC(=O)/C=C/c1ccc(O)c(O)c1` [METHYLCAFFEATE], the IC50 result is reported as “Not Active”.

Consider `O=C(O)CCc1ccc(O)c(O)c1` [DIHYDROCAFFEIC ACID], for which the IC50 result is listed as “Not Active”.

On to `O=C(O)/C=C\c1cc(O)c(O)cc1O`, for which the IC50 entry is listed as “Not Active”.

Consider `COc1cc(CC(O)C(=O)O)ccc1O` (stereo unspecified), for which the half-inhibitory concentration (IC50) result was “Not Active”.

Take `O=C(CCc1ccc(O)c(O)c1)O[C@H](Cc1ccc(O)c(O)c1)C(=O)O`: the IC50 entry is given as “Not Active”.

Take `O=C/C=C/c1ccccc1` [CINNAMALDEHYDE]: the 50% inhibitory concentration (IC50) entry is on record as “Not Active”.

On to `COC(=O)[C@@H](Cc1ccc(O)c(O)c1)OC(=O)C=Cc1ccc(O)c(O)c1` (mixture of isomers) [ROSMARINIC ACID METHYL ESTER], for which the IC50 result is “Not Active”.

Consider `O=C(O)/C=C\c1cc(O)c(O)c(O)c1`, for which the IC50 result is listed as “Not Active”.

As for `OC/C=C/c1ccccc1` [CINNAMIC ALCOHOL], the IC50 result was “Not Active”.

With `COC(=O)/C=C/c1ccccc1` [E-METHYL CINNAMATE], the IC50 entry is listed as “Not Active”.

The assay is the same for the next values; noted with them: Mus musculus, ddY; read-out: IC50.
Turning to `O=C(O)/C=C/c1ccc(O)cc1O`, the IC50 stood at 0.21 µM.

In the case of `O=C(O)/C=C/c1ccc(O)cc1` [COUMARIC ACID], the IC50 was 0.19 µM.

Turning to `O=C(O)/C=C/C=C/c1ccccc1` [JUAREZIC ACID], the IC50 amounted to 0.22 µM.

Regarding `C/C=C/C=C/C(=O)O` [SORBIC ACID], the IC50 was 0.21 µM.

Regarding `O=C(/C=C/c1ccc(O)c(O)c1)O[C@H](Cc1ccc(O)c(O)c1)C(=O)O` [ROSMARINIC ACID], the IC50 was 0.15 µM.

For `O=C(O)/C=C/c1ccc(O)c(O)c1` [CAFFEIC ACID], the IC50 came out at 0.19 µM.

With `COc1cc(/C=C/C(=O)O)ccc1O` [FERULATE], the IC50 came out at 0.2 µM.

As to `O=C(O)/C=C/c1ccccc1O` [O-COUMARIC ACID], the IC50 came to 0.19 µM.

Turning to `COc1ccc(/C=C/C(=O)O)cc1OC` [O,O'-DIMETHYLCAFFEIC ACID], the IC50 was found to be 0.24 µM.

On to `O=C(O)/C=C/c1ccccc1` [CINNAMIC ACID], for which the half-maximal inhibitory concentration (IC50) was determined as 0.18 µM.

With `O=C(C=Cc1ccc(O)c(O)c1)O[C@H](Cc1ccc(O)c(O)c1)C(=O)O` (mixture of isomers) [(E/Z)-ROSMARINIC ACID], the IC50 was 0.6 µM.

As to `O=C(O)/C=C/c1cc(O)c(O)c(O)c1`, the IC50 amounted to 0.18 µM.

As for `O=C(/C=C/c1ccc(O)c(O)c1)O[C@@H]1C[C@](O)(C(=O)O)C[C@@H](O)[C@H]1O` [CHLOROGENIC ACID], the IC50 was found to be 0.2 µM.

Consider `C/C=C/C(=O)O` [CROTONIC ACID], for which the IC50 was 0.22 µM.

Turning to `O=C(O)/C=C/c1cccc(O)c1`, the IC50 is 0.18 µM.

The record behind these values is ChEMBL document CHEMBL1764965, “Contribution of cinnamic acid analogues in rosmarinic acid to inhibition of snake venom induced hemorrhage” (Bioorg Med Chem, 2011).
